US10653679B2, “Compositions and methods for inhibiting bacterial growth” (priority 2015, dated 2020)
“Also recorded” adds a separate entry of the source. Like-named read-outs stand apart in the source and are kept apart here.

Columns and labels:
PhoPR regulon [1] = test: microbe, parasite or virus in culture; format: cell-based; details: Mycobacterium tuberculosis
Mtb CDC1551(aprA′::GFP) = format: cell-based, Mycobacterium tuberculosis
PhoPR regulon [2] = test: RNA-seq transcriptional profiling; format: cell-based, Mycobacterium tuberculosis
PhoPR regulon [3] = test: Semi-quantitative real-time PCR of phoP, aprA and pks2; format: cell-based, Mycobacterium tuberculosis
Esx-1 protein export = test: Analysis of Esx-1 protein export (Western blot); format: cell-based, Mycobacterium tuberculosis; details: Mtb Erdman, Sauton's medium, ETZ 80 μM
PhoPR regulon [4] = test: cells; format: cell-based, Mycobacterium tuberculosis
[5] = in animals, previously reported, cited from earlier work
WT Mtb CDC1551 = test: Cytoplasmic pH measurement
[6] = tested on: Mtb-associated granulomatous pneumonia; test: Lung histopathology of infected mice; details: ETZ 100 mg/kg vs CMC treated animals
Excerpt: (§1) C57BL/6 mice were infected via the intranasal route with 1000 CFU of the Erdman (aprA′::GFP smyc′::mCherry) dual fluorescent reporter. […] After 4 weeks, the right lung was homogenized and plated for enumeration of the bacterial load and the left lung was fixed in 4% paraformaldehyde before being transferred to 30% sucrose for confocal microscopy and pathology evaluation (FIG. 8). This experiment was repeated and the data from the two independent biological replicates were similar and therefore combined. […] Mice were euthanized by carbon dioxide asphyxiation followed by cervical dislocation.
For histopathology, transverse sections of each lung specimen was fixed in 4% paraformaldehyde for 48 hours, transferred to 50% ethanol for 4 hours, processed routinely, embedded in paraffin, and sectioned at 4 μm, followed by routine hematoxylin and eosin staining.

Mtb lipid synthesis = test: Analysis of mycobacterial lipids (14C radio-TLC); details: 80 μM ETZ
BMDMs = test: Phagosome acidification (pHrodo labeled beads in BMDMs); details: ETZ up to 100 μM, 4 h pre-treatment, 100 minutes
PhoPR regulon [7] = test: Quantitative single-cell imaging of reporter fluorescence in infected mouse lungs; details: ETZ treated lungs, 100 mg/kg oral, 4 weeks
Excerpt: as §1
PFA fixed mouse lungs were frozen in a 30% sucrose PBS pH 7.4 solution, frozen in a dry ice, ethanol bath, and stored at −80° C. until imaging. At the time of imaging, lungs were thawed and hand-sectioned using a sterile scalpel. Sections were transferred to a microscope slide and 10 μL of ProLong® Gold antifade reagent (Invitrogen) was added. […] Settings for GFP and mCherry fluorescence were held constant through the image acquisition to allow for comparison between samples. For quantification of Mtb reporter fluorescence, bacilli were identified in the mCherry channel and the corresponding sum of GFP fluorescence was measured using the Volocity software package (Perkin Elmer). At least 1500 bacilli were counted across multiple fields of view and lungs.

## CCOc1ccc2nc(S(N)(=O)=O)sc2c1 [ETZ, 6-ethoxy-1,3-benzothiazole-2-sulfonamide]
PhoPR regulon [1]; 144 h, pH 5.7, read-out: EC50 of inhibition of CDC1551(aprA′::GFP) reporter fluorescence
  EC50: 5.6 µM
PhoPR regulon [1]; pH 7, read-out: EC50 of inhibition of aprA′::GFP reporter fluorescence
  EC50: 4.7 µM
Mtb CDC1551(aprA′::GFP); pH 5.7, across the range of ETZ concentrations tested
  effect on growth: mostly unaffected; also recorded: little effect on growth
Mtb CDC1551(aprA′::GFP); pH 7.0
  effect on growth: little effect on growth
PhoPR regulon [2]
  down-regulation of espR and the espACD operon: > 1.5 fold
PhoPR regulon [2]; ETZ at acidic pH
  down-regulation of mmpL8-pks2 operon (Rv3823c-Rv3825c): ~5 fold
PhoPR regulon [3]
  regulation of phoP gene expression: did not exhibit substantial differential regulation
PhoPR regulon [3]; both pH 7.0 and 5.7
  down-regulation of aprA: > 5 fold
  down-regulation of pks2: > 5 fold
Esx-1 protein export
  ESAT-6 and CFP-10 expression: did not affect
  secretion of ESAT-6 and CFP-10: strongly and selectively reduced; also recorded: inhibits the secretion
  secretion of Sec-secreted protein Mpt-32: did not alter
PhoPR regulon [4]
  inhibition of reporter GFP fluorescence in infected macrophages: significantly down-regulates
PhoPR regulon [4]; Mycobacterium tuberculosis, BMDM, read-out: inhibition of reporter GFP fluorescence in infected macrophages
  inhibition at 100 µM: > 90%
[5]; 100 mg/kg
  drug-related organ lesions: no observable drug-related organ lesions
[5]
  LD50: ~1000 mg/kg
  half-life: 2.5 to 5.5 h
WT Mtb CDC1551; ETZ 80 μM, 6 days, medium pH 5.7
  acidification of cytoplasm: < 0.1 pH units
WT Mtb CDC1551; ETZ 80 μM, 6 days, medium pH 7.0
  change of cytoplasmic pH: no change
WT Mtb CDC1551; ETZ treated Mtb
  acidification of cytoplasmic pH: slight acidification
[6]
  percent lung area affected (Mtb-associated granulomatous pneumonia): did not have a significant reduction; also recorded: no significant difference
Mtb lipid synthesis
  accumulation of sulfolipid (SL): not detected; also recorded: lack of accumulation
BMDMs
  phagosome acidification: did not alter phagosome acidification
PhoPR regulon [7]
  Mtb cells in the bottom decile of GFP fluorescence: 49%
